In patent US20250127906A1, “SMALL-MOLECULE DEGRADERS OF CDK8 AND CDK19” (University of South Carolina, priority 2021, published 2025):

What was measured:
[1] = target: T1, CDK19 (Homo sapiens, UniProt Q9BWU1); assay: CDK19 degradation in HEK-293 cells with CRISPR knockout of CCNC; format: cell-based; design: a derivative of HEK-293cells with CRISPR-mediated knockout of CCNC; endogenous in cells; host or cells: HEK-293 with CRISPR knockout of CCNC; conditions: HEK-293 CCNC-knockout cells, 24 hr treatment
Source text: (§1) This cell line, however, is unique in lacking Cyclin C (CCNC), the binding partner of CDK8/19. To test if the absence of CDK8-bound CCNC was responsible for the loss of IA7843 CDK8-degrading activity, we have tested the effect of IA7843 on a derivative of HEK-293cells with CRISPR-mediated knockout of CCNC.
Target sequence in this assay (Q9BWU1 whole entry): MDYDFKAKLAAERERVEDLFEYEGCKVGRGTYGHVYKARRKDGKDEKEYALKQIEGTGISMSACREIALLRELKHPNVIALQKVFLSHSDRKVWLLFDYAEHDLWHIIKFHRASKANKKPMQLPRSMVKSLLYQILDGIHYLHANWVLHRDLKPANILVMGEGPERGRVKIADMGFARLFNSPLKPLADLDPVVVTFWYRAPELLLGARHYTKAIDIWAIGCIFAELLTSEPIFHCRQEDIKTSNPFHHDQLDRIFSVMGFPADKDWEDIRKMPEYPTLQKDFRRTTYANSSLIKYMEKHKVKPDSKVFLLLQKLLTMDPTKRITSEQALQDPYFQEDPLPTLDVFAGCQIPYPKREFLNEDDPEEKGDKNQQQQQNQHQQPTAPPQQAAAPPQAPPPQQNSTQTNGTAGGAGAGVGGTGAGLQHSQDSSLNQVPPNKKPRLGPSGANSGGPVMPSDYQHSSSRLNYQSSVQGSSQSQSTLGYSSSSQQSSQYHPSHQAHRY

[2] = target: T2, CDK8 (Mus musculus, UniProt Q8R3L8); assay: CDK8 protein level in CT26 tumors in Balb/c mice; format: in vivo; design: from tissue; host or cells: subcutaneous CT26 tumours in Balb/c female mice; conditions: oral gavage 20 mg/kg, 2, 8 or 24 hrs after dosing
T2 sequence (Q8R3L8 1-464): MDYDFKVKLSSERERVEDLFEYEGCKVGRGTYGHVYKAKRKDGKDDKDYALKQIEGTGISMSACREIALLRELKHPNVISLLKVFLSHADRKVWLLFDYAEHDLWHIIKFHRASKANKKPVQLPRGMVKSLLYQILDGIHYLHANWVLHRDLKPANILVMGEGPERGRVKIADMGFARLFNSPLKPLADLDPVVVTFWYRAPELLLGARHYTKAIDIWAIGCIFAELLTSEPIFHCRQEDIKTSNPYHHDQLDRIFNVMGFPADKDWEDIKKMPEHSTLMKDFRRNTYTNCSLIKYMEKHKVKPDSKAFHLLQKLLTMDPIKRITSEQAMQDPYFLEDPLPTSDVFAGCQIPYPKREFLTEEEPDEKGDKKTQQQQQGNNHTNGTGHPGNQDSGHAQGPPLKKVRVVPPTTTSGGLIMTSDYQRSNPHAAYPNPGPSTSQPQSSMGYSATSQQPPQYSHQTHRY
T2 sequence (Q62447 1-283 partner): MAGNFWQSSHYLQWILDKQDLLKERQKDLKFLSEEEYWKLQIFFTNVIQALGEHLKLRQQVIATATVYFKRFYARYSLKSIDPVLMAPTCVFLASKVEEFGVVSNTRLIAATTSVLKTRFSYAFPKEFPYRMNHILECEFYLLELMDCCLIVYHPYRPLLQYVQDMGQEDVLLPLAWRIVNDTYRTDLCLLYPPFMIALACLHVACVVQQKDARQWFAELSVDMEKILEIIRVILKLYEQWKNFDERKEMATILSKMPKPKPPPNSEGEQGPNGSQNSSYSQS
Description: (§2) CT26 cells were injected subcutaneously into syngeneic Balb/c female mice and allowed to grow to 150˜200 mm^3. Tumor-bearing mice then received PROTACs IA7882 or IA7886 by oral gavage at 20 mg/kg in 30% propylene glycol/70% PEG-400 vehicle. Tumors were collected 2, 8 or 24 hrs after dosing and used to measure protein levels of CDK8, pS727 STAT1 and total STAT1 (by western blotting) and mRNA expression of CCL12, a gene that is inhibited by different CDK8/19 inhibitors in CT26 tumors in vivo (by QPCR).

[3] = target: T3, CDK8 (Homo sapiens, UniProt P49336); assay: CDK8 degradation in Loucy T-cell leukemia cells lacking Cyclin C; format: cell-based; design: endogenous in cells; host or cells: Loucy; conditions: Loucy cells (lacking CCNC), 24 hr treatment
Source text: as §1
Target sequence in this assay (P49336 whole entry): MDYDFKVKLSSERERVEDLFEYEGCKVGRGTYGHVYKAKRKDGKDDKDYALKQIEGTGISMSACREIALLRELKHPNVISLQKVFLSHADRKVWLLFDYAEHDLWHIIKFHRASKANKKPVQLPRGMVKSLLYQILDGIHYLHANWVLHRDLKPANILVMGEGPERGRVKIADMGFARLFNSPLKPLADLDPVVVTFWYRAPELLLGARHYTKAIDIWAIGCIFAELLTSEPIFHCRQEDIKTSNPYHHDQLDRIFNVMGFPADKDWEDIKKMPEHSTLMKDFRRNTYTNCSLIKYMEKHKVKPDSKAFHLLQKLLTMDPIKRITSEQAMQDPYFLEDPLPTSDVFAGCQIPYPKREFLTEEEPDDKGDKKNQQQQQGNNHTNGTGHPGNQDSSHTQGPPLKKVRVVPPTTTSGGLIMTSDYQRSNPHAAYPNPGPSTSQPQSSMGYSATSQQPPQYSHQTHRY

[4] = target: T1, CDK19; assay: CDK19 degradation in HEK-293 cells (Western blot); format: cell-based; design: PROTACs on CDK8 and CDK19 degradation in HEK-293cells; endogenous in cells; host or cells: HEK-293; conditions: concentration degrading CDK19 to half of level in untreated cells
Source text: Furthermore, the degradation of both CDK8 and CDK19 by the PROTACs is also seen to decrease the levels of their binding partner cyclin C (CCNC) (FIG. 2B, D, E), which is known to be protected from proteolytic degradation by its interaction with CDK8 (Barette et al., 2001).
(§3) FIGS. 2F and 2G show the effects of different concentrations of potent Senexin C- and BI-1347-based PROTACs on CDK8 and CDK19 degradation in HEK-293cells. Based on these assays, we calculated DC50 values that correspond to PROTAC concentrations inducing degradation of CDK8 and CDK19 to the half of protein level in untreated cells. The corresponding CDK8 DC50 values were 46 nM for IA7843, 6.6 nM for IA7882 and 2.8 nM for IA7886, and CDK19 DC50 values were 1 μM for IA7843, 25 nM for IA7882 and 10 nM for IA7886.
Target sequence in this assay (Q9BWU1 whole entry): as the sequence (Q9BWU1 whole entry) above
Target sequence in this assay (P24863 whole entry partner): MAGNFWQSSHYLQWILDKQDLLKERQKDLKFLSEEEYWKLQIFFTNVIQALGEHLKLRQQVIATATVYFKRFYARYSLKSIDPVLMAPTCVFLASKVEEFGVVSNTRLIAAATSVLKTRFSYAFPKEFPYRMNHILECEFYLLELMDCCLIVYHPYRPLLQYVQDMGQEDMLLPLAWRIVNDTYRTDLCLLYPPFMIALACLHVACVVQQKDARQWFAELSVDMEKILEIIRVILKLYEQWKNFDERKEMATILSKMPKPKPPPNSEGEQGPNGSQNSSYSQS

[5] = system: pS727 STAT1 and total STAT1; assay: pS727 STAT1 and total STAT1 in CT26 tumors in Balb/c mice; format: in vivo; conditions: oral gavage 20 mg/kg, 2, 8 or 24 hrs after dosing
Description: as §2

[6] = target: T3, CDK8; assay: CDK8 degradation in HEK-293 cells with CRISPR knockout of CCNC; format: cell-based; design: a derivative of HEK-293cells with CRISPR-mediated knockout of CCNC; endogenous in cells; host or cells: HEK-293 with CRISPR knockout of CCNC; conditions: HEK-293 CCNC-knockout cells, 24 hr treatment
Source text: as §1
Target sequence in this assay (P49336 whole entry): as the sequence (P49336 whole entry) above

[7] = target: T1, CDK19; assay: CDK19 degradation in Loucy T-cell leukemia cells lacking Cyclin C; format: cell-based; design: endogenous in cells; host or cells: Loucy; conditions: Loucy cells (lacking CCNC), 24 hr treatment
Source text: as §1
Target sequence in this assay (Q9BWU1 whole entry): as the sequence (Q9BWU1 whole entry) above

[8] = target: T3, CDK8; assay: CDK8 degradation in HEK-293 cells (Western blot, normalized by GAPDH); format: cell-based; design: endogenous in cells; host or cells: HEK-293; conditions: HEK-293 cells
Description: Table 1 presents the structures of 35 different chimeras that have been synthesized, together with their effects (at 1 μM or 0.3 μM concentrations) on CDK8 degradation in HEK-293 cells. The synthesis schemes of all the compounds are described below. CDK8 degradation was measured by Western blot analysis of RIPA lysates of HEK-293cells treated with or without the test compound for 24 hours, using antibodies against CDK8 (Santa Cruz sc-1521) and housekeeping protein GAPDH (Santa Cruz sc-32233) (loading control) Protein bands on immunoblotted PVDF membranes were visualized with Western Lighting Plus ECL detection reagent (Perkin Elmer, Waltham, MA, USA) using ChemiDoc Touch™ (Bio-Rad). Image processing and densitometry analysis were performed using ImageLab software (Bio-Rad) to quantify the CDK8 protein levels (normalized by GAPDH) and evaluate the effects of compound treatment.
as §3
Target sequence in this assay (P49336 whole entry): as the sequence (P49336 whole entry) above
Target sequence in this assay (P24863 whole entry partner): as the sequence (P24863 whole entry partner) above

[9] = Serum drug concentrations in CD-1 mice (LCMSMS); format: in vivo; conditions: female CD-1 mice, i.p. 15 mg/kg, 15 min and 1 hr
Description: For preliminary evaluation of the bioavailability of the PROTACs, IA7882 and IA7886 were administered to female CD-1 mice via intraperitoneal (i.p.) injection at the dose of 15 mg/kg. Drug concentrations were measured by LCMSMS analysis of serum samples collected at 15 min and 1 hr time point.

[10] = system: CCL12; assay: CCL12 mRNA expression in CT26 tumors in Balb/c mice (QPCR); format: in vivo; conditions: oral gavage 20 mg/kg, 2, 8 or 24 hrs after dosing
Description: as §2

[11] = system: SK-MM-2 cells; assay: SK-MM-2 multiple myeloma cell growth over 20 days continuous treatment; format: cell-based; conditions: BI1347 200 nM, Senexin C 1 μM, IA7886 200 nM, IA7843 1 μM
Description: The following CDK8/19 kinase inhibitors were tested for their effects on MM cell lines over 20 days continuous treatment: CDK8/19 kinase inhibitors BI1347 (200 nM) and Senexin C (1 μM), BI1347-derived PROTAC IA7886 (200 nM) and Senexin C-derived PROTAC IA7843 (1 μM). 1-4 million cells were treated with vehicle control (0.1% DMSO), or CDK8/19 kinase inhibitors or PROTACs for 20 days. Every 4 days, cells were counted using BioRAD TC20 Automated Cell Counter with trypan blue staining, and the same number of cells were passaged to a new T25 flask to propagate under the same treatment conditions.

[12] = system: CDK8/19-regulated genes; assay: QPCR of CDK8/19-regulated genes in HEK-293 wild-type and CDK8/19 double-knockout cells; format: cell-based, human; conditions: for effect on expression of CDK8/19-regulated genes: 200 nM, 3-day treatment
Description: CDK8/19 act as transcriptional regulators, and therefore we tested the effects of 3-day treatment with 200 nM PROTAC IA7886 along with 200 nM CDK8/19 kinase inhibitor BI-1347 on a series of CDK8/19-regulated genes, using QPCR.
We have also compared the stability of transcriptional changes induced by a PROTAC and by a kinase inhibitor. In the experiment shown in FIG. 10A, HEK-293 cells were treated with 200 nM of BI-1347 or IA7886 for 3 days, and then the inhibitors were washed off and the restoration of transcriptional changes was monitored 24 hrs and 48 hrs after wash-off.

[13] = system: Jurkat cells; assay: Long-term growth of Jurkat cells under continuous treatment; format: cell-based, human; conditions: 300 nM continuous
Description: (§4) The anti-proliferative effects of a PROTAC and a kinase inhibitor were compared in leukemia cell lines. In the long-term treatment experiment shown in FIG. 11A, Jurkat cells (0.1 million cells) were continuously treated with vehicle control (0.1% DMSO), 300 nM BI-1347 or 300 nM IA7886 for 53 days (each condition in biological triplicates). Every 7-8 days, live cells were counted using BioRAD TC20 Automated Cell Counter with trypan blue staining: 0.1 million live cells were passaged to a new T25 flask to propagate under the same treatment conditions. The survival fraction was calculated by dividing the accumulated number of drug-treated cells with the accumulated number of vehicle-treated cells. […] This sustained inhibition property of PROTAC was also observed in MV4-11, a leukemia cell line highly sensitive to CDK8/19 kinase inhibitors.

[14] = system: MV4-11 cells; assay: Long-term growth of MV4-11 cells under continuous treatment; format: cell-based, human; conditions: MV4-11, 300 nM continuous
Description: as §4

[15] = system: Jurkat cells; assay: Wash-off growth study in Jurkat cells; format: cell-based, human; conditions: pre-treated 200 nM for 8 days, then drug-free vs drug-containing media for 8 days
Description: We also compared the stability of short-term growth inhibition induced by a PROTAC and a kinase inhibitor in a wash-off study in Jurkat cells. In the experiment shown in FIG. 11C, Jurkat cells were pre-treated with 200 nM BI-1347 or IA7886 for 8 days before removal of drug-containing media and further cultured in either drug-containing (200 nM) or drug-free media for 8 days before counting cell numbers. Removal of BI-1347 led to 7.1 fold increase of the cell number while removal of IA7886 increased the cell number only 1.8 fold (FIG. 11C).

[16] = system: KMS-12-BM cells; assay: Concentration dependence of KMS-12-BM growth inhibition (CCK-8 assay); format: cell-based; conditions: Homo sapiens, 96 h, over 4 days
Description: Concentration dependence of KMS-12-BM growth inhibition over 4 days was determined for BI-1347 CDK8/19 kinase inhibitor and IA7886 PROTAC using CCK-8 assay (FIG. 13B).

[17] = system: RPMI 8226 cells; assay: Concentration dependence of RPMI 8226 growth inhibition; format: cell-based; conditions: RPMI 8226, 4-day growth inhibition

O=C1CCC(N2C(=O)c3cccc(NCCOCCOCCOCCOCCC(=O)N4CCN(C(=O)Cn5cc(-c6ccc(-c7cncc8ccccc78)cc6)cn5)CC4)c3C2=O)C(=O)N1 (stereo not drawn) [IA7882, 2-(2,6-dioxo-3-piperidyl)-4-[2-[2-[2-[2-[3-[4-[2-[4-[4-(4-isoquinolyl)phenyl]pyrazol-1-yl]acetyl]piperazin-1-yl]-3-oxo-propoxy]ethoxy]ethoxy]ethoxy]ethylamino]isoindoline-1,3-dione]
CDK19 degradation (in words) [1]: efficiently degraded CDK8 and CDK19
CDK8 levels in tumor extracts [2]: decreased in most of the tumor extracts collected 2 hrs or 8 hrs after dosing
CDK8 degradation (in words) [3]: efficiently degraded CDK8 and CDK19
DC50 [4]: 25 nM
pS727 STAT1 and total STAT1 in tumors [5]: decreased in most of the tumors collected 2 hrs or 8 hrs after dosing
CDK8 degradation (in words) [6]: efficiently degraded CDK8 and CDK19
CDK19 degradation (in words) [7]: efficiently degraded CDK8 and CDK19
% CDK8 remaining ([8]; 24 hours, tested at 1 μM): 12%
DC50 ([8]; concentration degrading CDK8 to half of level in untreated cells): 6.6 nM
serum drug concentrations [9]: readily measurable and were higher for IA7882 than for IA7886
levels of CCL12 mRNA in tumors [10]: decreased in tumors treated with IA7882 or IA7886 2 hrs or 8 hrs (but not 24 hrs) after dosing

CN(C)C(=O)Cn1cc(-c2ccc(-c3cncc4ccccc34)cc2)cn1 [BI-1347, reference compound]
growth inhibition over 20 days, order of efficacy [11]: BI1347<IA7886<Senexin C<IA7843
effect on expression of CDK8/19-regulated genes ([12]; CDK8/19 double-knockout (dKO) 293 cells): had no effect in dKO cells
stability of transcriptional changes after wash-off ([12]; HEK-293, 200 nM for 3 days, then 24 hrs and 48 hrs after wash-off): largely maintained 24 hrs after wash-off but mostly disappeared 48 hrs after wash-off
effect on expression of CDK8/19-regulated genes ([12]; wild-type HEK-293 cells): had similar effects on the expression of the tested genes
growth inhibition, first two passages (14 days) [13]: had a stronger growth inhibition effect than the PROTAC IA7886
growth rates in later passages ([13]; up to 53 days): growth rates of BI-1347 treated cells were increasing
growth inhibition over 60 days [14]: strongly inhibited MV4-11 cells for the first 4 passages (33 days) but after that the cells became fully resistant to the kinase inhibitor
increase of the cell number upon removal of drug [15]: 7.1 fold
IC50 [16]: > 1000 nM

CN(C)C(=O)c1ccc(N2CCCN(c3ccnc4sc(C(N)=O)c(N)c34)CC2)cc1 [SNX631-6, reference compound]
IC50 [17]: > 1000 nM
